Results on 15 compounds are retold here after paper PMC6589914 (Chembiochem, 2019).

Structures are written as SMILES.

The first test concerns the target T1, BT2970 (Bacteroides thetaiotaomicron, UniProt Q8A3I4).
T1 sequence (Q8A3I4 30-484): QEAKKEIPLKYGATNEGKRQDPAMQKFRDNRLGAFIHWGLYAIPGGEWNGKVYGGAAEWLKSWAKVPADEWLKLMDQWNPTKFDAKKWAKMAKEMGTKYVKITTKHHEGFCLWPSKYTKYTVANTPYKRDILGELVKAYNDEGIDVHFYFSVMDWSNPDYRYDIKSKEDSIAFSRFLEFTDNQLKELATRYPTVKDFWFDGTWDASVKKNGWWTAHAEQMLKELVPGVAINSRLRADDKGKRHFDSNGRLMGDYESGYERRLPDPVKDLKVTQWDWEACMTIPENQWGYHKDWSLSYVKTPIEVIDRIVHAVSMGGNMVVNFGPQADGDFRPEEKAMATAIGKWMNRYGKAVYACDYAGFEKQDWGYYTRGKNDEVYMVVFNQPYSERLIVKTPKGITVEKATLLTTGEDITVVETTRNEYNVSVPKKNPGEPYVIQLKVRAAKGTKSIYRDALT
The test can be described thus: enzyme inhibition. Type of test: biochemical.
Compound `C[C@@H]1O/C(=N\OC(=O)Nc2ccccc2)[C@@H](O)[C@H](O)[C@@H]1O` [compound 39, 39] returned a Ki of 121 ± 24 µM.

The target in another test is T2, bFUCA1 (Bos taurus, UniProt Q2KIM0).
T2 sequence (Q2KIM0 23-468): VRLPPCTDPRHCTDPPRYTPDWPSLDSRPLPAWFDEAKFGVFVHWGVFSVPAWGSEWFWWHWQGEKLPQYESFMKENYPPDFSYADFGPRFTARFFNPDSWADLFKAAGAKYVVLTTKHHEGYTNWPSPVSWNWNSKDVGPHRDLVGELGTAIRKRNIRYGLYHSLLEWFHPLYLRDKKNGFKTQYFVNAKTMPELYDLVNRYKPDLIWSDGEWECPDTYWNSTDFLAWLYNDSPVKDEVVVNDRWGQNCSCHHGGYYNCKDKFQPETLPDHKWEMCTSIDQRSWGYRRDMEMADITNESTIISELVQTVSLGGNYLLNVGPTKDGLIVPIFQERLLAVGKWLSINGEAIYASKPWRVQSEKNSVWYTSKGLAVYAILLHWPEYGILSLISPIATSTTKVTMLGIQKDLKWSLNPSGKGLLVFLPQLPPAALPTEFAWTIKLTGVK
In words: enzyme inhibition assay with 4-nitrophenyl α-L-fucopyranoside. Format: biochemical.
`C[C@@H]1OC(=NO)[C@@H](O)[C@H](O)[C@@H]1O` [compound 12, 1,5-hydroximolactone 12]: the Ki was found to be 323 ± 12 µM.

Take `C[C@@H]1OC(=NOC(=O)NC2CCCC2)[C@@H](O)[C@H](O)[C@@H]1O` [compound 37, 37]: the affinity corresponds to a Ki of 325 ± 8 µM.

Compound `C[C@@H]1OC(=NOC(=O)NC(C)(C)C)[C@@H](O)[C@H](O)[C@@H]1O` [compound 34, 34] showed a Ki of 440 ± 9 µM.

Regarding `CCCCNC(=O)ON=C1O[C@@H](C)[C@@H](O)[C@@H](O)[C@@H]1O` [compound 31, 31], the Ki was determined as 172 ± 7 µM.

Take `COc1ccc(NC(=O)ON=C2O[C@@H](C)[C@@H](O)[C@@H](O)[C@@H]2O)cc1` [compound 41, 41]: affinity was put at a Ki of 9.5 ± 0.9 µM.

Consider `C=CCNC(=O)ON=C1O[C@@H](C)[C@@H](O)[C@@H](O)[C@@H]1O` [compound 30, 30], for which the Ki came out at 175 ± 6 µM.

For `C[C@@H]1OC(=NOC(=O)NC2CC2)[C@@H](O)[C@H](O)[C@@H]1O` [compound 35, 35], the affinity corresponds to a Ki of 184 ± 6 µM.

In the case of `C[C@@H]1OC(=NOC(=O)NC2CCC2)[C@@H](O)[C@H](O)[C@@H]1O` [compound 36, 36], the inhibitory constant (Ki) is 220 ± 12 µM. The Ki values of the last two compounds are within 1.5-fold of each other.

Take `CCCCCCNC(=O)ON=C1O[C@@H](C)[C@@H](O)[C@@H](O)[C@@H]1O` [compound 32, 32]: the Ki was found to be 143 ± 8 µM.

The compound `C[C@@H]1OC(=NOC(=O)Nc2ccc(Br)cc2)[C@@H](O)[C@H](O)[C@@H]1O` [compound 40, 40] yielded a Ki of 85 ± 4 µM.

The compound `C[C@@H]1O/C(=N\OC(=O)Nc2ccccc2)[C@@H](O)[C@H](O)[C@@H]1O` [compound 39, 39] registered a Ki of 11 ± 1 µM.

As to `CCCCCCCCCCc1ccc(NC(=O)ON=C2O[C@@H](C)[C@@H](O)[C@@H](O)[C@@H]2O)cc1` [compound 43, 43], the affinity corresponds to a Ki of 4.8 ± 0.5 µM. This Ki is about 2.3-fold lower than that of the compound before.

Compound `CCCNC(=O)ON=C1O[C@@H](C)[C@@H](O)[C@@H](O)[C@@H]1O` [compound 29, 29] showed a Ki of 190 ± 11 µM.

On to `CCCCc1ccc(NC(=O)ON=C2O[C@@H](C)[C@@H](O)[C@@H](O)[C@@H]2O)cc1` [compound 42, 42], for which the Ki was 7.5 ± 0.4 µM.

With `CC(C)NC(=O)ON=C1O[C@@H](C)[C@@H](O)[C@@H](O)[C@@H]1O` [compound 33, 33], the Ki is 320 ± 12 µM.

What is called Ki is the dissociation constant of the complex between target and ligand, obtained from inhibition or displacement. Read a high Ki as lower affinity.
